Experimental data taken from patent US6538008B1, “Combination of a selective NMDA NR2B antagonist and an opioid analgesic” (Merck Sharpe & Dohme Limited, priority 1998, dated 2003).
Values joined by “and” are separate entries in the source; they are usually repeats but may differ in a detail not shown here. Equal entries are not always repeated.

Tests used:
[1] = tested on: mechanical allodynia induced by sciatic nerve ligation; assay: Sciatic nerve ligation assay of neuropathic pain (mechanical allodynia, modified Randall-Selitto algesiometer); type: in vivo, rat; details: for effect on mechanical allodynia induced by sciatic nerve ligation: in words, Example 5; for ID50 Antinociception Rat Ligation: reversal of mechanical allodynia 7 days after ligation, compound given 1 h before test, route given per compound
[2] = tested on: mechanical hyperalgesia induced by carrageenan; assay: Carrageenan-induced mechanical hyperalgesia assay (modified Ugo Basile Algesiometer); type: in vivo, rat; details: for ID50 Antinociception Rat Carrageenan: inhibition of mechanical hyperalgesia 3 h after carrageenan 4.5 mg i.pl., compound given 2 h after carrageenan, route given per compound
Protocol: (§1) Anti-algesic activity was assessed using an assay of neuropathic pain in rats (sciatic nerve ligation) and in a carrageenan-induced hyperalgesia assay. Motor impairment was measured using an accelerating rotarod.
(§2) For sciatic nerve ligation, male Sprague Dawley rats (180-220 g) were anaesthetised with isofluorane, the left sciatic nerve exposed and 4 chromic catgut (4.0) ligatures were tied loosely around the nerve (spaced 1-2 mm apart) immediately proximal to the point of trifurcation. In sham-operated animals, the same dissection was performed but without ligation. Responses to mechanical pressure were assessed 7 days after ligation using a modified Randall-Selitto algesiometer in which constant force of 40 mmHg was applied to the hind paw and the latency to struggle was recorded as the reaction time. Mechanical allodynia was defined as the difference in reaction time for sham and ligature rats. Reaction times for drug treated rats were expressed as a percentage of this response. Compounds were administered 1 h before the test. In the carrageenan-induced hyperalgesia assay, male Sprague Dawley rats (100-120 g) received an intraplantar injection of carrageenan (4.5 mg) and mechanical thresholds were determined 3 h later using a modified Ugo Basile Algesiometer. Control rats received saline (0.15 ml i.pl.). Hyperalgesia was defined as the difference in vocalisation threshold for saline- and carrageenan-injected rats. Paw pressure scores for drug-treated rats were expressed as a percentage of this response. Compounds were administered 2 h after carrageenan. To determine the effects of the compounds on motor co-ordination, male Sprague Dawley rats (160-180 g) were first trained to remain for 120 s on the rotarod apparatus revolving at 12 r.p.m. on the morning before the test. […] Lamotrigine, gabapentin and (±)-CP-101,606 were suspended in 0.5% methocel and administered orally (1 ml/kg). Ifenprodil, L-701.324, L-687,414 and (±)-Ro25-6981 were dissolved or suspended in 0.5% methocel and administered intraperitoneally (1 ml/kg). MK-801 was dissolved in distilled water and given i.p. (1 ml/kg). Doses of compounds refer to the free base.
(§3) Male Sprague Dawley rats (100-120 g) received an intraplantar injection of carrageenan (4.5 mg) and mechanical thresholds were determined 3 h later using a modified Ugo Basile Algesiometer. Control rats received saline (0.15 ml i.pl.). Hyperalgesia was defined as the difference in vocalisation threshold for saline- and carrageenan-injected rats. Paw pressure scores for drug-treated rats were expressed as a percentage of this response. Compounds were administered 2 h after carrageenan. To determine the effects of morphine and (±)-Ro25-6981 on motor co-ordination, male Sprague Dawley rats (160-180 g) were first trained to remain for 120 s on the rotarod apparatus revolving at 12 r.p.m. on the morning before the test.
(§4) (±)-Ro25-6981 was suspended in 0.5% methocel and administered intraperitoneally (1 ml/kg). Morphine HCl was dissolved in saline and given subcutaneously (1 ml/kg). Doses of compounds refer to the free base.

[3] = tested on: rotarod performance (motor co-ordination); assay: Motor co-ordination and behaviour, accelerating rotarod; details: for ID50 Motor Impairment Rat Rotarod: accelerating rotarod 1 h after drug, route given per compound
Protocol: as §1, §2, §3, §4

[4] = tested on: rat hyperalgesic and nociceptive tests; details: at doses showing no behavioural abnormality; cited from earlier work

Compound	effect on mechanical allodynia induced by sciatic nerve ligation [1]	ID50 Antinociception Rat Ligation [1] [mg/kg]	ID50 Antinociception Rat Carrageenan [2] [mg/kg]	ID50 Motor Impairment Rat Rotarod [3]	further results
CC(C(O)c1ccc(O)cc1)N1CCC(Cc2ccccc2)CC1 (centres unmarked) [Ifenprodil, ifenprodil]	reversed mechanical allodynia	9.5	17	≧50 mg/kg	adverse effects observed (ptosis, piloerection, hypoactivity, hyperventilation) ([3]; 50 mg/kg): severe adverse effects; impairment in rotarod performance ([3]; 50 mg/kg): approximately 50%
CN1CC[C@]23c4c5ccc(O)c4O[C@H]2[C@@H](O)C=C[C@H]3[C@H]1C5 [morphine]					effect on mechanical hyperalgesia induced by carrageenan ([2]; 1 mg/kg s.c., alone (FIG. 2)): completely reversed mechanical hyperalgesia; effect on mechanical hyperalgesia induced by carrageenan ([2]; 0.1 and 0.3 mg/kg s.c., alone (FIG. 2)): without effect; percent inhibition of hyperalgesia ([2]; morphine 0.1 mg/kg s.c. alone): 11%; percent inhibition of hyperalgesia ([2]; morphine 0.3 mg/kg s.c. alone): 31%; effect on rotarod performance ([3]; 3 mg/kg s.c. alone (FIG. 3)): significant impairment; effect on rotarod performance ([3]; 0.3 and 1 mg/kg s.c. alone (FIG. 3)): no effect
NCC1(CC(=O)O)CCCCC1 [Gabapentin, gabapentin]	reversed mechanical allodynia	87	50	133 mg/kg	behavioural effects observed ([3]; doses of 30-300 mg/kg): motor impairments (ataxia)
C[C@@H]1CN(O)C(=O)[C@@H]1N [L-687,414]	dose-dependently reversed mechanical allodynia	9.8	50	53.3 mg/kg and 53 mg/kg	behavioural effects observed ([3]; 100 and 300 mg/kg i.p.): body rolling and ataxia
C[C@@H]([C@@H](O)c1ccc(O)cc1)N1CCC(O)(c2ccccc2)CC1 [CP-101,606]					analgesic activity [4]: Potent analgesic activity
O=c1[nH]c2cc(Cl)ccc2c(O)c1-c1cccc(Oc2ccccc2)c1 [L-701,324]	dose-dependently reversed mechanical allodynia	2.6	2.5	1.9 mg/kg	behavioural effects observed ([3]; 10 and 30 mg/kg i.p.): ataxia was evident
(±)-CP-101,606	dose-dependently reversed mechanical allodynia	6.1	37	>300 mg/kg	rotarod latency compared to vehicle-treated rats ([3]; 300 mg/kg dose): significant increase in latency; effect on motor performance on the rotarod ([3]; up to 300 mg/kg p.o.): did not inhibit motor performance
Nc1nnc(-c2cccc(Cl)c2Cl)c(N)n1 [Lamotrigine, lamotrigine]	reversed mechanical allodynia	11	207	>500 mg/kg	inhibition in the time spent on the rotarod ([3]; 500 mg/kg p.o.): 40%; other effects observed besides rotarod inhibition ([3]; 500 mg/kg p.o.): no other effects were observed
C[C@@H](CN1CCC(Cc2ccccc2)CC1)[C@@H](O)c1ccc(O)cc1 (racemic) [(±)-Ro25-6981]	dose-dependently reversed mechanical allodynia	3.8	5.7	≧100 mg/kg	antinociception in carrageenan-induced hyperalgesia ([2]; 1 mg/kg i.p., alone): did not cause significant antinociception; effect on mechanical hyperalgesia induced by carrageenan ([2]; 10 and 30 mg/kg i.p., alone (FIG. 1)): dose-dependent reversal of mechanical hyperalgesia; effect on rotarod performance ([3]; 1 mg/kg i.p. alone (FIG. 3)): no effect; inhibition of rotarod performance ([3]; 100 mg/kg i.p.): 47%
C[C@]12N[C@H](Cc3ccccc31)c1ccccc12 [MK-801]	dose-dependently reversed mechanical allodynia	0.19	0.21	0.22 mg/kg	behavioural effects observed ([3]; 0.3 and 1 mg/kg doses): Body rolling. and head weaving
